# Assay results published in US12606528B2, “Methods and materials for inhibiting NF-kB activity” (University of Pittsburgh - Of the Commonwealth System of …, priority 2019, dated 2026).
# pIC50: −log10 of the molar value. Like-named read-outs stand apart in the source and are kept apart here.
# Tests used:
# [1] = tested on: NF-κB; assay: NF-κB assay: THP1-NF-κB-LUC cells, LPS-stimulated secreted luciferase; format: cell-based; details: THP1-NF-κB-LUC cells, read-out: IC50 (NF-κB assay)
# Procedure, shortened: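 THP1-NF-κB-LUC cells (25k/well) were pretreated with compounds for 2 h, then stimulated with LPS (10 ng/mL) for 18 h. Secreted luciferase was measured and normalized to vehicle, and IC50 was fitted from the concentration series.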
# [2] = tested on: TNF release; assay: TNF assay: TNF release from LPS-stimulated human PBMCs (TNF ELISA); format: cell-based; details: PBMC, read-out: IC50 (TNF assay)
# Procedure, shortened: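 Human PBMCs at 10k/well pretreated with compound dilutions 2 h, then stimulated with LPS (10 ng/mL) for 18 h. TNF in supernatants quantified by ELISA; IC50 for inhibition of TNF release fitted from concentration–response.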
# [3] = compounds 2 hours before LPS (10 ng/mL) for 18 hours, secreted luciferase
# [4] = human PBMCs, compounds 2 hours before LPS (10 ng/ml) for 18 hours, supernatant TNF ELISA
# [5] = LPS-stimulated human PBMCs, TNF ELISA
SMILES,"pIC50 [1, 3]","pIC50 [2, 4]",pIC50 ([1]; LPS-stimulated),"pIC50 [2, 5]"
CCC1Oc2c(cc(Br)cc2S(=O)(=O)NCCc2ccc(OC(F)(F)F)cc2)NC1=O (stereo not drawn) [BC19376],5.00 to 6.00,< 5.00,–,–
Cn1nnnc1-c1ccc2nc(-c3ccc(F)cc3)c(-c3ccc(F)cc3)nc2c1 [BC19139],–,–,> 7.00,< 5.00
CC1Oc2cc(S(=O)(=O)Nc3ccc(C(C)C)cc3)c(Br)cc2N(C)C1=O (stereo not drawn) [BC19794],5.00 to 6.00,< 5.00,–,–
CCC1Oc2cc(S(=O)(=O)Nc3cc(Cl)ccc3C)c(Cl)cc2NC1=O (stereo not drawn) [BC19215],5.00 to 6.00,< 5.00,–,–
CN1CCN(C(=O)C2CCc3nc(-c4ccc(F)cc4)c(-c4ccc(F)cc4)nc3C2)CC1 (stereo not drawn) [BC19663],–,–,6.00 to 7.00,< 5.00
Cc1ccc(F)c2[nH]cc(S(=O)(=O)c3ccc(F)c(F)c3)c(=O)c12 [BC19253],> 7.00,< 5.00,–,–
O=C1COc2c(cc(Cl)cc2S(=O)(=O)Nc2ccccc2)N1 [BC19168],> 7.00,< 5.00,–,–
CC(C)c1ccc(NS(=O)(=O)c2cc3c(cc2Cl)NC(=O)CO3)cc1 [BC19136],< 5.00,< 5.00,–,–
CCC1Oc2cc(S(=O)(=O)Nc3ccc(OC)cc3)c(Cl)cc2NC1=O (stereo not drawn) [BC19211],6.00 to 7.00,< 5.00,–,–
O=S(=O)(c1ccc(F)cc1)c1cnccc1O [BC19459],< 5.00,< 5.00,–,–
CC1Oc2cc(S(=O)(=O)N3CCOCC3)c(Br)cc2NC1=O (stereo not drawn) [BC19217],< 5.00,< 5.00,–,–
COCCS(=O)(=O)c1oc(-c2ccc(F)cc2)nc1S(=O)(=O)c1ccc(Cl)cc1 [BC19333],–,–,> 7.00,> 7.00
CCC1Oc2cc(S(=O)(=O)NC3CCCCC3)c(Br)cc2NC1=O (stereo not drawn) [BC19223],< 5.00,< 5.00,–,–
O=C(Nc1ccc2nc(-c3ccc(F)cc3)c(-c3ccc(F)cc3)nc2c1)OCC(F)(F)F [BC19239],–,–,6.00 to 7.00,< 5.00
CCC1Oc2cc(S(=O)(=O)NC3CCC(O)CC3)c(Br)cc2NC1=O (stereo not drawn) [BC19372],< 5.00,< 5.00,–,–
COc1ccc(NS(=O)(=O)c2cc(Br)cc3c2OCCC(=O)N3)cc1Cl [BC19688],–,–,< 5.00,< 5.00
COc1ccc(S(=O)(=O)c2cnccc2O)cc1OC [BC19455],< 5.00,< 5.00,–,–
COc1ccc(NS(=O)(=O)c2cc(Br)cc3c2OC(C)C(=O)N3C)cc1Cl (stereo not drawn) [BC19909],< 5.00,< 5.00,–,–
CC(C)CS(=O)(=O)c1oc(-c2ccccc2)nc1S(=O)(=O)c1ccc(F)c(F)c1 [BC19275],–,–,> 7.00,> 7.00
Cc1ccc(NS(=O)(=O)c2cc(Br)cc3c2OC(C)C(=O)N3C)cc1F (stereo not drawn) [BC19785],> 7.00,< 5.00,–,–
CC1Oc2c(cc(Cl)cc2S(=O)(=O)Nc2ccc(F)cc2Cl)NC1=O (stereo not drawn) [BC19720],> 7.00,< 5.00,–,–
O=C(O)c1cccc2nc(-c3ccc(F)cc3)c(-c3ccc(F)cc3)nc12 [BC19320],–,–,< 5.00,< 5.00
CCS(=O)(=O)c1cc2c(c(S(=O)(=O)Nc3cccc(F)c3)c1)OCC(=O)N2 [BC19440],> 7.00,< 5.00,–,–
CC1Oc2c(cc(Br)cc2S(=O)(=O)Nc2ccccc2)N(C)C1=O (stereo not drawn) [BC19789],> 7.00,5.00 to 6.00,–,–
Cn1c(-c2ccccc2)nc(S(=O)(=O)c2ccc(F)cc2)c1S(=O)(=O)CC1CC1 [BC19634],–,–,< 5.00,< 5.00
N#Cc1cnc2nc(-c3ccc(F)cc3)c(-c3ccc(F)cc3)nc2c1 [BC19495],–,–,6.00 to 7.00,< 5.00
CS(=O)(=O)c1cc2c(c(S(=O)(=O)Nc3ccc(F)cc3F)c1)OCC(=O)N2 [BC19425],> 7.00,< 5.00,–,–

SMILES,"pIC50 [1, 3]","pIC50 [2, 4]",pIC50 ([1]; LPS-stimulated),"pIC50 [2, 5]"
CC(C)CC1Oc2cc(S(=O)(=O)Nc3ccc(F)cc3)c(Br)cc2NC1=O (stereo not drawn) [BC19782],5.00 to 6.00,< 5.00,–,–
CC(C)S(=O)(=O)c1snc(-c2ccc(F)cc2)c1S(=O)(=O)c1ccc(Cl)cc1 [BC19728],–,–,< 5.00,5.00 to 6.00
O=c1c(S(=O)(=O)c2ccc(F)cc2)c[nH]c2ccc(Cl)cc12 [BC19160],< 5.00,< 5.00,–,–
CC1Oc2cc(S(=O)(=O)Nc3ccc(F)cc3)c(Cl)cc2NC1=O (stereo not drawn) [BC19721],> 7.00,5.00 to 6.00,–,–
CC1C(=O)Nc2ccc(S(=O)(=O)N3CCCC3)cc2N1C(=O)N1CCOCC1 (stereo not drawn) [BC19297],–,–,5.00 to 6.00,< 5.00
CC(C)CS(=O)(=O)c1oc(-c2cccc(F)c2)nc1S(=O)(=O)c1ccc(Cl)cc1 [BC19348],–,–,> 7.00,6.00 to 7.00
CC1Oc2c(cc(Cl)cc2S(=O)(=O)Nc2cccc(F)c2)NC1=O (stereo not drawn) [BC19714],> 7.00,5.00 to 6.00,–,–
CC1C(=O)Nc2ccc(S(=O)(=O)N3CCCC3)cc2N1C (stereo not drawn) [BC19296],–,–,5.00 to 6.00,< 5.00
CC(C)C[S+]([O-])c1[nH]c(-c2ccccc2)nc1S(=O)(=O)c1ccc(F)cc1 (stereo not drawn) [BC19582],–,–,5.00 to 6.00,< 5.00
CC1Oc2cc(S(=O)(=O)Nc3ccc(F)cc3Cl)c(Br)cc2NC1=O (stereo not drawn) [BC19285],5.00 to 6.00,< 5.00,–,–
C[S+]([O-])c1sc(-c2cccc(F)c2)nc1S(=O)(=O)c1ccc(F)cc1 (stereo not drawn) [BC19595],–,–,6.00 to 7.00,6.00 to 7.00
O=C1COc2c(cc(Br)cc2S(=O)(=O)Nc2ccc(F)cc2F)N1 [BC19178],> 7.00,5.00 to 6.00,–,–
C[S+]([O-])c1sc(-c2ccc(Cl)cc2)nc1S(=O)(=O)c1ccc(Cl)cc1 (stereo not drawn) [BC19528],–,–,5.00 to 6.00,6.00 to 7.00
CS(=O)(=O)c1[nH]nc(N)c1S(=O)(=O)c1ccccc1 [BC19339],–,–,< 5.00,< 5.00
CC1Oc2cc(S(=O)(=O)NC3CCC(O)CC3)c(Br)cc2NC1=O (stereo not drawn) [BC19360],< 5.00,< 5.00,–,–
CCC1Oc2c(cc(Br)cc2S(=O)(=O)Nc2ccc(Cl)cc2)N(C)C1=O (stereo not drawn) [BC19929],> 7.00,5.00 to 6.00,–,–
CCC[S+]([O-])c1[nH]c(-c2ccccc2)nc1S(=O)(=O)c1ccc(F)cc1 (stereo not drawn) [BC19585],–,–,5.00 to 6.00,< 5.00
CN1CCN(C(=O)c2cnc3nc(-c4ccc(F)cc4)c(-c4ccc(F)cc4)nc3c2)CC1 [BC19408],–,–,6.00 to 7.00,< 5.00
CN1CCN(C(=O)c2ccc3nc(C(F)(F)F)c(-c4ccc(F)cc4)nc3c2)CC1 [BC19103],–,–,< 5.00,< 5.00
O=C(NCCN1CCOCC1)c1ccc2nc(-c3ccc(OC(F)(F)F)cc3)c(-c3ccc(OC(F)(F)F)cc3)nc2c1 [BC19503],–,–,5.00 to 6.00,5.00 to 6.00
COCC(=O)N1CCC(C(=O)Cc2ccc3nc(-c4ccc(F)cc4)c(-c4ccc(F)cc4)nc3n2)CC1 [BC19494],–,–,6.00 to 7.00,< 5.00
CCc1ccc(NS(=O)(=O)c2cc(Br)cc3c2OC(CC(C)C)C(=O)N3)cc1 (stereo not drawn) [BC19763],6.00 to 7.00,5.00 to 6.00,–,–
O=C(NCCN1CCOCC1)Nc1ccc2nc(-c3ccc(F)cc3)c(-c3ccc(F)cc3)nc2c1 [BC19567],–,–,6.00 to 7.00,5.00 to 6.00
COCC[S+]([O-])c1oc(-c2cccc(F)c2)nc1S(=O)(=O)c1ccc(Cl)cc1 (stereo not drawn) [BC19351],–,–,6.00 to 7.00,> 7.00
O=C1COc2c(cc(Br)cc2S(=O)(=O)Nc2ccc(C(F)(F)F)cc2Cl)N1 [BC19384],> 7.00,< 5.00,–,–
CC(C)C[S+]([O-])c1sc(-c2ccc3ccccc3c2)nc1S(=O)(=O)c1ccc(Cl)cc1 (stereo not drawn) [BC19675],–,–,5.00 to 6.00,5.00 to 6.00
CC1Oc2c(cc(Cl)cc2S(=O)(=O)Nc2ccc(F)cc2F)NC1=O (stereo not drawn) [BC19710],> 7.00,< 5.00,–,–
